Each compound was assayed against STAT3 (Homo sapiens, UniProt P40763) (assay: Quantitation of STAT3 degradation in A549 cells by Western blot). Conditions: read-out: A549 DC50, 24 hours, tested up to 30 μM or 10 μM.
Sequence of STAT3 (P40763 whole entry): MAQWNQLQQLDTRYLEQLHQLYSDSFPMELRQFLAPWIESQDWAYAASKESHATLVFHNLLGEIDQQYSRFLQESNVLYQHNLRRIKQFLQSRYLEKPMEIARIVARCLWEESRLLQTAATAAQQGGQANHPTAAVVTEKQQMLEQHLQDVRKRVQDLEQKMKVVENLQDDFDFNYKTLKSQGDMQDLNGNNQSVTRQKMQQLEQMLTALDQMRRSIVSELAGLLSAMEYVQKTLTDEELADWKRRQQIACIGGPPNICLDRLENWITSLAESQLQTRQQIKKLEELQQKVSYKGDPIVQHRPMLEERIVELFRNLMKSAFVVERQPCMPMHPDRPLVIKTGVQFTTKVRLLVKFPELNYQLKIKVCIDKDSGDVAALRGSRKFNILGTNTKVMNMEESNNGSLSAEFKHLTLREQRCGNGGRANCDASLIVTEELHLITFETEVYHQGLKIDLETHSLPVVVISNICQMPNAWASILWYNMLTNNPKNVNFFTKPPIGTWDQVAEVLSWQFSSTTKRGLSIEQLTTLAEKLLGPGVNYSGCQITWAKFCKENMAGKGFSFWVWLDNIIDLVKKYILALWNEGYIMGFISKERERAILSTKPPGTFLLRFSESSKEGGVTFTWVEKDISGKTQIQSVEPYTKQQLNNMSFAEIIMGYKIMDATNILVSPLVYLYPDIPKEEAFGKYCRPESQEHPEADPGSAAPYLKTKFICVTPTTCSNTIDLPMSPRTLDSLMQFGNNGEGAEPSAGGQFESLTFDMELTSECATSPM
Assay type: cell-based
Parameters: expressed in transfected cells; host or cells: A549
Procedure, shortened: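 A549 cells treated 24 h at 37° C with compound at 30, 10, 3, 1, 0.3 μM or DMSO; RIPA lysates analysed by SDS-PAGE/Western blot for total STAT3, β-actin as loading control, LI-COR fluorescence read-out. DC50 derived by sigmoidal fit of dose-dependent degradation.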
`C[C@@H](OCc1ccc(CCCCc2ccc3c(c2)n(C)c(=O)n3C2CCC(=O)NC2=O)cc1)[C@H](CCC(N)=O)NC(=O)[C@@H]1Cc2cccc3c2N1C(=O)[C@@H](NC(=O)c1cc2cc(C(=O)P(=O)(O)O)ccc2[nH]1)CC3` (stereo partly shown) [Compound I-84] was tested, and the DC50 was > 30 µM. For `Cc1ncsc1-c1ccc(CNC(=O)[C@@H]2C[C@@H](O)CN2C(=O)[C@@H](NC(=O)CCCC#Cc2ccc(CO[C@H](C)[C@H](CCC(N)=O)NC(=O)[C@@H]3Cc4cccc5c4N3C(=O)[C@@H](NC(=O)c3cc4cc(C(=O)P(=O)(O)O)ccc4[nH]3)CC5)cc2)C(C)(C)C)cc1` [Compound I-86], the DC50 was < 30 µM. For `Cc1ncsc1-c1ccc(CNC(=O)[C@@H]2C[C@@H](O)CN2C(=O)[C@@H](NC(=O)CCc2ccc3cc(CO[C@H](C)[C@H](CCC(N)=O)NC(=O)[C@@H]4Cc5cccc6c5N4C(=O)[C@@H](NC(=O)c4cc5cc(C(=O)P(=O)(O)O)ccc5[nH]4)CC6)ccc3c2)C(C)(C)C)cc1` [Compound I-87, diammonium 2-[[(2S,11S)-2-[[(3S,4R)-1-carbamoyl-4-[[6-(2-[[(2S)-1-[(2S,4R)-4-hydroxy-2-([[4-(4-methyl-1,3-thiazol-5-yl)phenyl]methyl]carbamoyl)pyrrolidin-1-yl]-3,3-dimethyl-1-oxobutan-2-yl]carbamoyl]ethyl)naphthalen-2-yl]methoxy]pentan-3-yl]carbamoyl]-12-oxo-1-azatricyclo[6.4.1.0^[4,13]]trideca-4(13),5,7-trien-11-yl]carbamoyl]-1H-indole-5-carbonylphosphonate], the DC50 was < 30 µM. For `Cn1c(=O)n(C2CCC(=O)NC2=O)c2cccc(CCCCC(=O)N3CC[C@H]4CC[C@@H](C(=O)N[C@@H](CCC(N)=O)C(=O)NC(c5ccccc5)c5ccccc5)N4C(=O)[C@@H](NC(=O)c4cc5cc(C(=O)P(=O)(O)O)ccc5[nH]4)C3)c21` (stereo partly drawn) [Compound I-88, 2-[[(5S,8S,10aR)-8-[[(1S)-3-carbamoyl-1-(diphenylmethylcarbamoyl)propyl]carbamoyl]-3-[5-[1-(2,6-dioxopiperidin-3-yl)-3-methyl-2-oxo-1,3-benzodiazol-4-yl]pentanoyl]-6-oxo-octahydropyrrolo[1,2-a][1,5]diazocin-5-yl]carbamoyl]-1H-indole-5-carbonylphosphonic acid], the DC50 was > 30 µM. With `C/C(=C\C(=O)N[C@H]1CN(C(=O)CCCCCC#Cc2cccc3c2CN(C2CCC(=O)NC2=O)C3=O)CC[C@H]2CC[C@@H](C(=O)N[C@@H](CCC(N)=O)C(=O)NC(c3ccccc3)c3ccccc3)N2C1=O)c1ccc(CP(=O)(O)O)cc1` (stereo partly drawn) [Compound I-89, diammonium [4-[(1E)-1-[[(5S,8S,10aR)-8[[(1S)-3-carbamoyl-1-(diphenylmethylcarbamoyl)propyl]carbamoyl]-3-[8-[2-(2,6-dioxopiperidin-3-yl)-1-oxo-3H-isoindol-4-yl]oct-7-ynoyl]-6-oxo-octahydropyrrolo[1,2-a][1,5]diazocin-5-yl]carbamoyl]prop-1-en-2-yl]phenyl]methylphosphonate] the DC50 was < 30 µM. For `Cc1ncsc1-c1ccc(C2(NC(=O)[C@@H]3C[C@@H](O)CN3C(=O)[C@@H](NC(=O)CCCCc3ccc(CO[C@H](C)[C@H](CCC(N)=O)NC(=O)[C@@H]4Cc5cccc6c5N4C(=O)[C@@H](NC(=O)c4cc5cc(C(=O)P(=O)(O)O)ccc5[nH]4)CC6)cc3)C(C)(C)C)CC2)cc1` [Compound I-90, 2-[[(2S,11S)-2-[[(3S,4R)-1-carbamoyl-4-[[4-(4-[[(2S)-1-[(2S,4R)-4-hydroxy-2-([1-[4-(4-methyl-1,3-thiazol-5-yl)phenyl]cyclopropyl]carbamoyl)pyrrolidin-1-yl]-3,3-dimethyl-1-oxobutan-2-yl]carbamoyl]butyl)phenyl]methoxy]pentan-3-yl]carbamoyl]-12-oxo-1-azatricyclo[6.4.1.0^[4,13]]trideca-4(13),5,7-trien-11-yl]carbamoyl]-1H-indole-5-carbonylphosphonic acid], the DC50 was < 30 µM. In the case of `Cn1c(=O)n(C2CCC(=O)NC2=O)c2cccc(CCCCCCCC(=O)N3CC[C@H]4CC[C@@H](C(=O)N[C@@H](CCC(N)=O)C(=O)NC(c5ccccc5)c5ccccc5)N4C(=O)[C@@H](NC(=O)c4cc5cc(C(=O)P(=O)(O)O)ccc5[nH]4)C3)c21` (stereo partly shown) [Compound I-91], the DC50 is reported as < 30 µM.
